Data taken from ChEMBL document CHEMBL1151783 (Bioorg Med Chem Lett, 2008).
≈ marks a conversion by molar mass, not a printed value. Calls of active or inactive are those of the source. The rule behind the calls is not given here.

Columns and labels:
Bos taurus [1] = organism: Bos taurus; assay: Inhibition of bovine tubulin polymerization at 10 uM
Raji = assay: Cytotoxicity against human Raji cells after 48 hrs by luminescence cell viability assay; type: functional, cell-based
Bos taurus [2] = organism: Bos taurus; assay: Binding affinity to bovine tubulin at 10 uM after 2 hrs by fluorescence polarization assay
Vero [3] = assay: Cell cycle arrest in african green monkey Vero cells assessed as accumulation at G2/M phase after 18 hrs by flow cytometry using propidium iodide staining; type: functional, cell-based; details: Chlorocebus sabaeus
[4] = Binding affinity to bovine tubulin after 2 hrs by fluorescence polarization assay; design: species or system Bos taurus
HeLa = assay: Cytotoxicity against human HeLa cells after 48 hrs by luminescence cell viability assay; type: functional, cell-based
Vero [5] = assay: Cytotoxicity against african green monkey Vero cells after 48 hrs by luminescence cell viability assay; type: cell-based; details: Chlorocebus sabaeus
HepG2 = assay: Cytotoxicity against human HepG2 cells after 48 hrs by luminescence cell viability assay; type: functional, cell-based; details: HepG2, 48 h
[6] = Solubility in phosphate buffer saline after 2 hrs; type: physicochemical; details: phosphate buffered saline
[7] = Membrane permeability by PAMPA; type: ADME; details: for Papp: read-out: permeability
[8] = Displacement of [3H]colchicine from bovine tubulin after 2 hrs by fluorescence polarization assay; design: species or system Bos taurus
Bos taurus [9] = organism: Bos taurus; assay: Inhibition of bovine tubulin polymerization at 5 uM
Vero [10] = assay: Induction of apoptosis in african green monkey Vero cells assessed as caspase 3/7 activity after 18 hrs […]; type: functional, cell-based; details: Chlorocebus sabaeus

SMILES	Activity (Bos taurus [1])	EC50 (Raji) [µM]	Activity (Bos taurus [2])	EC50 (Vero [3]) [µM]	Kd [4] [µM]	EC50 (HeLa) [µM]	EC50 (Vero [5]) [µM]	EC50 (HepG2) [µM]	solubility at 2 h [6] [µM]	Papp [7] [×10⁻⁶ cm/s]	IC50 [8] [µM]	Activity (Bos taurus [9])	EC50 (Vero [10]) [µM]	permeability [7] [×10⁻⁶ cm/s]
CC(=O)O[C@H]1C(=O)[C@@]2(C)[C@H]([C@H](OC(=O)c3ccccc3)[C@]3(O)C[C@H](OC(=O)[C@H](O)[C@@H](NC(=O)c4ccccc4)c4ccccc4)C(C)=C1C3(C)C)[C@]1(OC(C)=O)CO[C@@H]1C[C@@H]2O	inactive													
COc1cc2c(c(OC)c1OC)-c1ccc(OC)c(=O)cc1[C@@H](NC(=O)CCC1=[N+]3C(=Cc4cccn4[B-]3(F)F)C=C1)CC2		0.138	Active	0.96	5.8	0.36	2.3	0.18	32 (≈ 19.3 µg/mL)	108	3.9	Active	2.6	
COc1cc2c(c(OC)c1OC)-c1ccc(OC)c(=O)cc1[C@@H](NC(=O)CCCCCNC(=O)COc1ccc(/C=C/C3=[N+]4C(=Cc5ccc(-c6ccc[nH]6)n5[B-]4(F)F)C=C3)cc1)CC2		0.65		6.8	7.6	1.9	> 10	1.2	< 10	< 10	6.4	Active	10.5	
COc1cc2c(c(OC)c1OC)-c1ccc(OC)c(=O)cc1[C@@H](NC(C)=O)CC2 [COLCHICINE]									> 250			Active		415
